Data reported in patent US20200138822A1, “TOPICAL COMPOSITIONS COMPRISING PENTOXIFYLLINE AND METHODS OF TREATMENT USING THE SAME” (priority 2018, published 2020).

Assays:
[1] = tested on: oral ulcers of BD patients; experiment: Randomized, open-label clinical study: index ulcer healing (ulcer area by digital image processing); assay type: in vivo, human
Description: (§1) A randomized, open-label, proof-of-concept clinical study was conducted under an FDA Investigational New Drug Application (IND). […] The CLC was administered orally as a pill and dosed as determined by the subject's physician. No less than every 48 hours, subjects' ulcers were photographed and examined using digital image processing to determine ulcer area, over a period of 14 days, which include daily collection of adverse events, ulcer number, and pain scores.
(§2) Inclusion criteria required the recent (<2 days) appearance of a new oral ulcer. Patients on immunosuppressant therapies were excluded from the study.
Patients were contacted daily for 14 consecutive days and were examined in-person no less than every 48 hours except for weekends. On the first day of entry into the study, the largest ulcer was identified and photographed as the “index ulcer”; its location was recorded and it was subsequently photographed at every in-person visit. Photographs were made with a paper ruler showing millimeter graduations lain in the same plane as the ulcer itself. Graphical processing software was used to compute the ulcer area in square millimeters; this software was calibrated from the paper ruler image and required drawing a line around the image of the ulcer margin.
Then, the proportion of patients with undetectable index ulcer (defined as those with an ulcer area of less than 1 mm^2) at day 4 was compared. Lastly, the trend in mean ulcer area over 14 days was compared as well as the results' sensitivity to outliers.

[2] = tested on: oral ulcers of BD patients; experiment: Randomized, open-label clinical study: daily average number of oral ulcers; assay type: in vivo, human; conditions: during the two-week treatment period; mean +/- SD
Description: as §1, §2
The total number of oral ulcers were also counted at each in-person visit, and the daily average number of oral ulcers were calculated during the treatment period.

[3] = tested on: BD patients; experiment: Randomized, open-label clinical study: adverse events / safety; conditions: 14-day study
Description: as §1, §2
All adverse events were reviewed in real time by the treating physician investigator.

[4] = times greater than PTX; cited from earlier work
[5] = Day 2, PTX+CLC n = 18, CLC n = 21
[6] = Day 4 clearance, undetectable = ulcer area less than 1 mm^2, n = 18 / n = 21

Compound: COc1cc2c(c(OC)c1OC)-c1ccc(OC)c(=O)cc1[C@@H](NC(C)=O)CC2 [CLC, colchicine]
- Patients with Index Ulcer Growth - % [1, 5]: (80%)
- Patients with Index Ulcer Growth - Number [1, 5]: 16
- Patients with Index Ulcer Shrinkage - % [1, 5]: (19%)
- Patients with Index Ulcer Shrinkage - Number [1, 5]: 4
- Patients with Index Ulcer Shrinkage - % ([1]; Day 2, PTX+CLC n = 18, CLC n = 21, listed as CLC-only): 19%
- Patients with Remaining Ulcers - % ([1]; Day 4, n = 18 / n = 21): (71%)
- Patients with Remaining Ulcers - Number ([1]; Day 4, n = 18 / n = 21): 15
- Patients with Undetectable Ulcers - % [1, 6]: (29%)
- Patients with Undetectable Ulcers - Number [1, 6]: 6
- Patients with Undetectable Ulcers - % ([1]; Day 4 clearance, undetectable = ulcer area less than 1 mm^2, n = 18 / n = 21, listed as CLC-only): 29%
- Mean index ulcer area by treatment group (trend) ([1]; FIG. 1, over 14 days from day zero): first growing then slowly decreasing
- Daily average number of oral ulcers [2]: 1.89+/−1.36
- Serious adverse events [3]: No serious adverse events occurred
- Dysgeusia - % of patients ([3]; adverse event): 0%
- Dysgeusia - number of patients ([3]; adverse event): 0
- Limited dermal rashes - % of patients ([3]; adverse event): 29%
- Limited dermal rashes - number of patients ([3]; adverse event): 6
- Nausea - % of patients ([3]; adverse event): 10%
- Nausea - number of patients ([3]; adverse event): 2
- Vomiting - number of patients ([3]; adverse event): none

Compound: Cn1cnc2c1c(=O)n(CCCC(=O)O)c(=O)n2C [Metabolite V, 1-[3-carboxypropyl]-3,7-dimethylxanthine]
- Plasma levels of metabolite relative to PTX [4]: eight

Compound: CC(O)CCCCn1c(=O)c2c(ncn2C)n(C)c1=O (stereo not shown) [Metabolite 1, 1-[5-hydroxyhexyl]-3,7-dimethylxanthine]
- Plasma levels of metabolite relative to PTX [4]: five
